These results are taken from US7307101B2, “Use of 20-HETE synthesizing enzyme inhibitors as therapy for cerebral vascular disease” (MCW Research Foundation, Inc., priority 2000, dated 2007).

As a reminder, the IC50 is the midpoint of a concentration-inhibition curve.

The subject of data set [1] is canine neutrophils. Briefly: Formation of 20-HETE by canine neutrophils. In kind it is cell-based. Particulars: Canis lupus familiaris, Neutrophil, read-out: IC50, formation of 20-HETE by canine neutrophils; 2×10^7 cells in dog CSF, 2 hours, n=4. How it is done:
Experiments were performed to determine the cell type in canine blood responsible for the formation of 20-HETE. Experiments were performed using 4 male Beagle dogs. The dogs were anesthetized with sodium pentobarbital (30 mg/kg, i.v.). Venous blood sample was drawn and immediately mixed with 1:9 volume of trisodium citrate (3.8%) as an anticoagulant. Neutrophils were prepared to 98% purity using a percoll gradient technique. CSF was drawn from the Cistema Magna by using a 20 gauge needle. Only clear CSF sample without blood was used for the present experiment. The CSF was oxygenated with mixed gas (95% O2, 5% CO2) for 30 min. Neutrophils were suspended in the oxygenated CSF and cell numbers were adjusted to 2×10^6, 6.3×10^6, and 2×10^7. Whole blood (20 μl), red blood cells (20 μl) or neutrophils were incubated in the oxygenated CSF (180 μl) including 1 mM NADPH and [^3H]-AA at 37° C. for 2 hrs. The reaction was terminated by the addition of formic acid. One hundred percent acetonitrile (200 μl) was added to the reaction buffer to adjust final concentration to 50% for HPLC separation. […] The labeled products formed were monitored using a radioactive flow detector (raytest GmbH, Straubenhardt, Germany).
The reactions were terminated by addition of formic acid. […] The labeled metabolites were monitored using a radioactive flow detector ramona 93 (raytest GmbH, Straubenhardt, Germany).

In data set [2] the test system is rats with MCA occlusion. Briefly: Infarct volume after transient MCA occlusion. The data set is classed as in vivo, rat. To be noted: 24 h. Here is the method:
Adult male Wistar rats (200-250 g) were anesthetized with 2% halothane in O2 gas. The right external carotid artery (ECA) was carefully dissected. A silicon-coated suture (18 mm-long) was inserted from the lumen of the ECA to the right internal carotid artery (ICA) to occlude the origin of the right middle cerebral artery (MCA). Body temperature was maintained at 37° C. with a heating pad. […] One hour after MCA occlusion, the thread was removed to allow reperfusion of the ischemic area.
To measure infarct volume, rats were killed after 24 hours of reperfusion following transient occlusion of the MCA. Brains were flushed transcardially with physiological saline, removed from the skull, and cut into 2-mm coronal sections. The slices were immersed in 2% triphenyltetrazolium chloride (TTC) solution at 37° C. for 30 minutes.
All values were presented as mean±SEM. For statistical analysis, Dunnett's multiple-range test was used.

Data set [3] is described as follows: HET0016 levels in plasma and brain. To be noted: rat; for concentration at 1 h: iv. In kind it is in vivo. How it is done:
Measurement of HET0016 levels in plasma and brain. […] After a one hour equilibration period, the rats were anesthesized with pentobarbital and a blood sample was collected from the jugular vein. The rats were then sacrificed and the brain was removed, weighed and homogenized in 3 volumes of 0.9% NaCl solution using a Physcotron homogenizer (Nition-Ikakikai, Chiba, Japan). […] The samples were mixed with 1 ml of acetonitrile, centrifuged and 20 μl of the clear supernatant was injected into the LC/MS. The samples were separated on a 200×4.6 mm Capcellpak UG 120 ODS column (Shiseido Corp., Tokyo, Japan) and eluted with acetonitrile:water (72/28). Peaks were monitored using a Sciex API 3000 mass spectrometer (Perkin Elmer Sciex, Ontario, Canada) tuned to detect the precursor to product transitions specific for each analyte.

In data set [4] the test system is rat 20-HETE synthesizing enzyme. The data set is described as follows: Synthesis of 20-HETE in rat renal microsomes ([14C]-AA). In kind it is biochemical. Particulars: 1.5 nM, lowest dose tested.
Description: Microsomes were prepared by differential centrifugation as previously described. […] The reactions were terminated by acidification to pH 3.5 using 0.1 mol/L formic acid and extracted with ethyl acetate. Metabolites were separated using a 25 cm×2 mm i.d. (Supelco Inc., Bellefonte, Pa.) C18-reverse phase HPLC column and a linear elution gradient ranging from acetonitrile:water: acetic acid (50/50/0.1) to acetonitrile:acetic acid (100/0.1) over a 40 min period. The radioactive products were monitored using a radioactive flow detector (Model 120, Radiomatic Instrument Co., Tampa, Fla.).

Take `CCCCc1ccc(N=CNO)c(C)c1` [HET0016, N-hydroxy-N′-(4-butyl-2-methylphenyl)-formamidine]: the IC50 in data set [1] stood at 10.2 ± 1.3 nM. Besides, the infarct volume in data set [2] (0.1 mg/kg i.v. just after reperfusion, n=10) came to 10.7±2.6%; in data set [2] (1 mg/kg i.v. just after reperfusion, n=17), 9.7±2.1%. Also, the concentration at 1 h amounted to 7.2 µM in data set [3] (brain, 1 hr after i.v. 10 mg/kg); 1490 ng/g in data set [3] (brain, 1 hr after i.v. 10 mg/kg, n=3); 570 ± 90 ng/mL in data set [3] (plasma, 1 hr after i.v. 10 mg/kg, n=3); 2.8 µM in data set [3] (plasma, one hour after i.v. 10 mg/kg body weight). In addition, in data set [3] (1 hr after i.v. 10 mg/kg), the HET0016 level in plasma (molar) is 2.8 µM. Further, the “inhibition of rat 20-HETE synthesizing enzymes” value in data set [4] was “about 20%”.
